Source: PMC3095642, “New Synthetic Thrombin Inhibitors: Molecular Design and Experimental Verification” (PLoS ONE, 2011)
Read-outs that look alike come from different tables or passages of the source. Marks after values point to notes of the source that are not given here.

How the values were obtained:
Human thrombin = target: T1, Human thrombin (Homo sapiens, UniProt P00734); test: Thrombin induced hydrolysis of specific substrates in buffer system; assay type: biochemical
T1 construct: Human thrombin (8.3 mg/ml) was obtained from Hematologic Technologies Inc; purchased Hematologic Technologies Inc. (Essex Junction, VT, USA)
Method: The kinetics of thrombin inhibition was determined from the hydrolysis reaction of a specific substrate by thrombin in the presence of the tested substances. The chromogenic substrate (Tosyl-Gly-Pro-Arg-p-nitroanilide) or fast fluorogenic substrate (BOC-Ala-Pro-Arg-AMC) was used.
Plate wells were filled with 20 mM HEPES (pH 8.0) containing 140 mM NaCl and 0.1% polyethylene glycol (molecular weight 6000 Da). Thereafter, substrate was sequentially added to each well (final concentration, 100 µM), followed by the substance being tested (to a final concentration that was varied) and thrombin (final concentration, 0.2 nM). The hydrolysis rate was monitored spectrophotometrically at 405 nm (absorption maximum of the reaction product – p-nitroaniline), or fluorometrically (λex = 380 nm; λem = 440 nm for fluorescent reaction product 7-amino-4-methylcoumarine).
The initial rate was determined as the slope of the linear portion of the kinetic curve over the first 10 to 20 min of measurement. The inhibitory effect was expressed as the percentage reduction of the initial hydrolysis rate. The reaction rate in the absence of inhibitor was taken as 100%. Each result is the mean of two parallel determinations.
The inhibitor concentration was determined decreasing hydrolysis rate to 50% (IC50). Values of the inhibition constants were calculated on the assumption about competitive mechanism of inhibition using equation (1) [drawing 1] (1) where: KI - the constant of inhibition,
• S - the concentration of a substrate (100 µM), • KM - the Michaelis constant of a specific substrate for thrombin (9.44 µM, average from ref. [23], [24] and our measurements for chromogenic and 13 µM for the fluorogenic substrate, respectively).

C57Bl/6 mice [1] = test: Acute toxicity in mice; assay type: in vivo, mouse; conditions: females, mortality after 2 or less hours
Method: Preliminary safety examination for the best synthesized inhibitors was carried out by measuring their acute toxicity in C57Bl/6 mice (females, 26–28 g, intraperitoneal administration). The total number of animals used in each experiment was 20–35. The dose of inhibitor that caused mortality in half of the animals after 2 or less hours (LD50) was determined. […] For administration of different doses of an inhibitor, different volumes of the initial stock inhibitor solution were supplemented with corresponding volumes of vehicle (20% cremophore EL in normal saline) to obtain a constant administered volume of 1.8 ml in each case. To obtain the highest doses of inhibitors, the animals were injected with 2.3 ml of stock inhibitor solutions instead.

[2] = test system: thrombin generation in normal donor plasma (PPP); test: Thrombin generation test in plasma (endogenous thrombin potential, ETP); assay type: biochemical, human
Method: The kinetics of thrombin generation in plasma was monitored using a modification of the standard method using a slow fluorogenic substrate BOC-Ile-Gly-Arg-AMC [8]. Normal donor plasma (PPP) was placed in the wells (90 µl/well) of a 96-well flat-bottom microtiter plate, after which 10 µl of the substance solution to be tested was added in different concentrations, along with 10 µl of the slow fluorogenic substrate (initial concentration 5 mM). In the control wells (without inhibitor), 10 µl of the solvent used was added (20 mM HEPES, pH 7.5 and 140 mM NaCl; or pure ethanol, or dimethylsulfoxide (DMSO) for different substances). The samples were incubated at 37°C for 3–5 min before being activated with thromboplastin, which was a 1∶250 dilution of a standard prothrombin time reagent (Renam, Moscow, Russia) in the same buffer supplemented with 90 mM CaCl2. The final concentration of tissue factor during activation was about 4 pM. Thromboplastin (25 µl) was added to all wells simultaneously using a multichannel micropipette. The moment of thromboplastin addition was taken as time zero. The kinetics of accumulation of the fluorescent reaction product 7-amino-4-methylcoumarine (AMC) was recorded for 65 min with a fluorometric Fluoroscan II reader (LabSystem, Finland) (λex. = 380 nm; λem. = 440 nm). The results were averaged over two parallel samples. The error of parallel measurements was within 2–5%. At every moment, the rate of product accumulation is proportional to the instant thrombin concentration present in plasma. Therefore, the curve for the temporal evolution of thrombin in the system may be obtained using differentiation of the curve for AMC accumulation. For each sample, arbitrary fluorescence units were converted to absolute AMC concentrations using the calibration signal obtained by adding a known AMC concentration into each particular plasma sample in the presence of the fluorogenic substrate and the tested substance. The corrections were done taking into account the substrate consumption and the nonlinearity of the AMC calibration curve. The area under the thrombin time curve over a period of 60 min (endogenous thrombin potential, ETP) was determined.

[3] = test system: thrombin generation in normal donor plasma (PPP); conditions: ref [36], [37], read-out: IC50 for ETP reduction; cited from earlier work
C57Bl/6 mice [4] = conditions: ref [38]; cited from earlier work
[5] = test system: hemodilution-induced hypercoagulation in rats; test: Model of hemodilution-induced hypercoagulation in rats; assay type: in vivo, rat; conditions: 23.0±4.5% blood loss, infusion of saline supplemented with 2 µM inhibitor, 10, 30 or 60 min after infusion
Method: In particular, 200 µl of PPP samples were placed in the wells of a 96-well plate. Then, 2 µl of a solution of fluorogenic substrate BOC-Ile-Gly-Arg-AMC in DMSO (initial concentration 41 mM) was added, and coagulation was triggered by 3 µl of activator, which was a 1∶20 dilution of a standard prothrombin time reagent (Renam, Moscow, Russia) in the buffer (20 mM HEPES, 140 mM NaCl, pH 7.5) supplemented with 1.4 M CaCl2. Measurement of fluorescence (120 min) and processing of the results obtained were carried out by the methods described earlier.
The anticoagulation activity of one of the new thrombin inhibitors (4i) was studied in vivo in a newly developed model of hemodilution-induced hypercoagulation in rats. Experiments were carried out on male outbred white rats weighing 250–450 g and housed in a vivarium. A polyethylene cannula was implanted into the right femoral artery of the rats, which were anesthetized with thiopental (40 mg/kg of body weight, i.p.), to a depth of 4–5 cm. […] Coagulation was analyzed in samples of blood collected before hemodilution for all animals. […] The volume of blood loss was calculated on the assumption that the total blood volume of the rat is equal to 6.5% of the body weight.

[6] = fast fluorogenic substrate (SFLUO), 100 µM, thrombin 0.2 nM, read-out: Inhibition of specific thrombin substrate hydrolysis in buffer system IC50
[7] = fast fluorogenic substrate (SFLUO), calculated from IC50 assuming a competitive mechanism of inhibition, read-out: Inhibition of specific thrombin substrate hydrolysis in buffer system KI
[8] = chromogenic substrate (SCHR), read-out: Inhibition of thrombin activity (in buffer system) IC50
[9] = chromogenic substrate Tosyl-Gly-Pro-Arg-p-nitroanilide, calculated assuming competitive inhibition, KM 9.44 µM, read-out: KI for thrombin inhibition in buffer system
[10] = ETP reduction by 50% in plasma in vitro, read-out: IC50 for reduction of thrombin generation in plasma
[11] = chromogenic substrate (SCHR), calculated assuming competitive type of inhibition, read-out: Inhibition of thrombin activity (in buffer system) Ki
[12] = Table S2, read-out: IC50 for ETP reduction in plasma

SMILES	LD50 (mouse), intraperitoneal administration (C57Bl/6 mice [1])	IC50 (Human thrombin; [8]) [nM]	Ki (Human thrombin; [9]) [nM]	IC50 [2, 10] [nM]	also measured
Cc1ccc2nc(-c3ccc(CSC(=N)N)cc3)oc(=O)c2c1 [NSC 328131]					IC50 (Human thrombin; [6]): ~35000 nM; Ki (Human thrombin; [7]): 4000 nM
CC12CCC3C(CC=C4CC(SC(=N)N)CCC43C)C1CCC2=O (stereo not drawn) [NSC 41339]					IC50 (Human thrombin; [6]): 240000 nM; Ki (Human thrombin; [7]): 27600 nM
Cc1cc(OCC[n+]2ccc(N)cc2)cc(OS(=O)(=O)c2ccc(Cl)cc2)c1.[I-] [4h]	372.7 ± 84.6 mg/kg	9	0.78	150	
Cc1cc(OCCSC(=N)N)cc(OS(=O)(=O)c2ccccc2S(C)(=O)=O)c1.I [8b]	>458.0 ^5) mg/kg	17	1.5	800	
CC(=O)C1CCC2C3CC=C4CC(SC(=N)N)CCC4(C)C3CCC12C (stereo not drawn) [NSC 123477]					IC50 (Human thrombin; [6]): 75000 nM; Ki (Human thrombin; [7]): 8600 nM
Cc1cc(OCCC[n+]2ccc(N)cc2)cc(OS(=O)(=O)c2ccccc2Cl)c1 [4d]		3400			Ki (Human thrombin; [11]): 293 nM; IC50 [2, 12]: 40000 nM
Cc1cc(OCCCSC(=N)N)cc(OS(=O)(=O)c2ccccc2F)c1.I [8f]	>653.1 ^5) mg/kg	23.5	2.03	1240	
Cc1cc(OCCCSC(=N)N)cc(OS(=O)(=O)c2ccccc2)c1 [8a]		97			Ki (Human thrombin; [11]): 8.4 nM; IC50 [2, 12]: 8000 nM
CC1CNc2c(cccc2S(=O)(=O)N[C@@H](CCCNC(=N)N)C(=O)N2CC[C@@H](C)C[C@@H]2C(=O)O)C1 (stereo partly drawn) [Argatroban]				650	IC50 [3]: 600 to 970 nM; LD50 (mouse), intraperitoneal administration (C57Bl/6 mice [4]): 475 mg/kg
Cc1cc(OCCCSC(=N)N)cc(OS(=O)(=O)c2ccccc2Cl)c1 [8e]		11.6			Ki (Human thrombin; [11]): 1 nM; IC50 [2, 12]: 4100 nM
CNC(=N)SCCOc1cc(C)cc(OS(=O)(=O)c2ccccc2Cl)c1.I [8h]	>287.0 ^5) mg/kg	65.8	5.7	530	
CC(C)(C)CC(C)(C)c1ccc(OCCSC(=N)N)cc1 [NSC 4482]					IC50 (Human thrombin; [6]): 3450 nM; Ki (Human thrombin; [7]): 400 nM
CNC(=N)SCCCOc1cc(C)cc(OS(=O)(=O)c2ccccc2Cl)c1 [8g]		5500			Ki (Human thrombin; [11]): 474 nM; IC50 [2, 12]: 25200 nM
N=C(N)c1ccc(-c2ccc(-c3ccc(C(=N)N)cc3)o2)cc1 [NSC 305831]					IC50 (Human thrombin; chromogenic substrate (SCHR), 100 µM, thrombin 0.2 nM, read-out: Inhibition of specific thrombin substrate hydrolysis in buffer system IC50): 72000 nM; Ki (Human thrombin; chromogenic substrate (SCHR), calculated from IC50 assuming a competitive mechanism of inhibition, read-out: Inhibition of specific thrombin substrate hydrolysis in buffer system KI): 6200 nM
Cc1cc(OCCSC(=N)N)cc(OS(=O)(=O)c2ccccc2)c1.I [8d]	>1111.1 mg/kg	11	0.95	900	
Cc1cc(OCC[n+]2ccc(N)cc2)cc(OS(=O)(=O)c2ccccc2Cl)c1.[I-] [4f]	679.0 ± 152.7 mg/kg	2.44	0.21	260	
Cc1cc(OCC[n+]2ccc(N)cc2)cc(OS(=O)(=O)c2ccccc2F)c1.[I-] [4e]	523.1 ± 92.3 mg/kg	3.5	0.3	100	
Cc1cc(OCC[n+]2ccc(N)cc2)cc(OS(=O)(=O)c2ccccc2S(C)(=O)=O)c1.[I-] [4g]	166.7 ± 20.0 mg/kg	8.7	0.75	160	
Cc1cc(OCC[n+]2ccc(N)cc2)cc(OS(=O)(=O)c2ccccc2)c1.[I-] [4i]	418.9 ± 33.0 mg/kg	9	0.78	250	Effect on development of hypercoagulation (change of ETP relative to initial level) [5]: canceled the hypercoagulation effect of hemodilution
Cc1cc(OCCSC(=N)N)cc(OS(=O)(=O)c2ccccc2Cl)c1.I [8c]	793.5 ± 118.5 mg/kg	3.8	0.33	160	
